Results from patent US20090123419A1, “TREATMENT OF UTERINE CANCER AND OVARIAN CANCER WITH A PARP INHIBITOR ALONE OR IN COMBINATION WITH ANTI-TUMOR AGENTS” (BiPar Sciences, priority 2007, published 2009).
Where two headings read alike, the source gives them in different places.

Legend:
[1] = test system: carcinosarcoma of the uterus; details: single agent; cited from earlier work
[2] = test system: advanced endometrial cancer; details: of 29 patients enrolled; preliminary data analysis; cited from earlier work
[3] = test system: advanced or recurrent endometrial cancer; details: single agent; cited from earlier work
advanced solid tumors = experiment: Phase 1b study of BA in combination with chemotherapy, clinical response via RECIST; type: in vivo, human; details: number of subjects; chemotherapy in combination with BA
Experimental: The protocol has been amended to evaluate BA in combination with chemotherapy in specific tumor types.
BA plus cytotoxic chemotherapy (CTX)
BA Dosing: • Twice weekly; i.v. infusion • Standard 3+3 design for BA dose escalation • Dose levels studied: 2.0, 2.8, 4.0, 5.6, 8.0, and up to 11.2 mg/kg
Clinical response via RECIST every 2 cycles
Subjects— 18 years old with a refractory, advanced solid tumor, ECOG PS of <=2, and adequate hematological, renal, and hepatic function
No restriction on number of prior chemotherapeutic regimens

[4] = test system: panel of 63 other kinases, including native c-Abl; details: cited from earlier work
[5] = test system: cells not expressing Bcr-Abl; details: cited from earlier work
[6] = test system: persistent or recurrent nonsquamous cell carcinoma of the cervix; details: cited from earlier work
endometrial carcinoma = details: cited from earlier work
[7] = test system: carcinosarcoma of the uterus; details: cited from earlier work
[8] = test system: carcinosarcoma of the uterus; details: cited from earlier work; remark: listed apart in the source

N.N.[Cl][Pt][Cl] [cisplatin]
response rate [1]: 18%

COc1cc2ncnc(Nc3ccc(F)c(Cl)c3)c2cc1OCCCN1CCOCC1 [ZD1839, gefitinib]
patients with complete response [2]: 1 patient
patients with stable disease at 6 months [2]: several

CC(=O)O[C@H]1C(=O)[C@@]2(C)[C@H]([C@H](OC(=O)c3ccccc3)[C@]3(O)C[C@H](OC(=O)[C@H](O)[C@@H](NC(=O)c4ccccc4)c4ccccc4)C(C)=C1C3(C)C)[C@]1(OC(C)=O)CO[C@@H]1C[C@@H]2O [paclitaxel]
response rate [1]: 18.2%
response rate [3]: 36%

Nc1ccn(C2OC(CO)C(O)C2(F)F)c(=O)n1 (centres unmarked) [Gemcitabine, 4-amino-1-[3,3-difluoro-4-hydroxy-5-(hydroxymethyl)tetrahydrofuran-2-yl]-1H-pyrimidin-2-one]
CR + PR (advanced solid tumors): 3

COc1cc([C@@H]2c3cc4c(cc3[C@@H](O[C@@H]3O[C@@H]5CO[C@@H](C)O[C@H]5[C@H](O)[C@H]3O)[C@H]3COC(=O)[C@H]23)OCO4)cc(OC)c1O [etoposide]
response rate [1]: 6.5%

CC[C@@]1(O)C(=O)OCc2c1cc1n(c2=O)Cc2cc3c(CN(C)C)c(O)ccc3nc2-1 [topotecan]
CR + PR (advanced solid tumors): 1
response rate [1]: 10%

NC(=O)c1cccc(-c2cc(Nc3ccc(OC(F)(F)F)cc3)ncn2)c1 [GNF-2]
inhibition of a panel of 63 other kinases [4]: does not inhibit
toxicity towards cells not expressing Bcr-Abl [5]: complete lack of toxicity

Cn1nnc2c(C(N)=O)ncn2c1=O [Temozolomide, temozolomide]
CR + PR (advanced solid tumors): 1

CC/C(=C(\c1ccccc1)c1ccc(OCCN(C)C)cc1)c1ccccc1 [tamoxifen]
complete responses ([6]; 27 evaluable for response): one
partial responses ([6]; 27 evaluable for response): two
grades 3 and 4 adverse effects reported ([6]; 32 patients evaluable for adverse effects): six
antitumor activity, conclusion ([6]; in vivo): minimal activity
objective response rate ([6]; tamoxifen citrate 10 mg orally twice a day, 27 evaluable for response): 11.1%

COc1cccc2c1C(=O)c1c(O)c3c(c(O)c1C2=O)C[C@@](O)(C(=O)CO)C[C@@H]3O[C@H]1C[C@H](N)[C@H](O)[C@H](C)O1 [doxorubicin]
response rate [1]: 9.8%
response rate (RR) (endometrial carcinoma; doxorubicin 60 mg/m^2, cisplatin 50 mg/m^2, p=0.004): 25%
PFS (endometrial carcinoma; in vivo): 3.8 months
OS (endometrial carcinoma; no difference observed): 9 months

O=P1(NCCCl)OCCCN1CCCl (centres unmarked) [ifosfamide]
response rate [1]: 32.2%
median progression-free survival ([7]; p=0.03): 3.6 months
median survival ([7]; p=0.03): 8.4 months
response rate ([7]; second randomized trial): 29%
toxicity ([7]; use of ifosfamide): significant toxicity
median progression-free survival ([8]; p=0.02): 4 months
median survival ([8]; p=0.07): 7.6 months
response rate ([8]; randomized phase III trial): 36%
